Molecules are shown by their SMILES.

The results in this text go back to publication PMC11233931, “Remodeling tumor‐associated macrophage for anti‐cancer effects by rational design of irreversible inhibition of mitogen‐activated protein kinase‐activated protein kinase 2” (MedComm, 2024).

Holding throughout (experiment): Eurofins kinase selectivity profile against 380 other human recombinant kinases (Table S2)
Common to all, as to type: biochemical

In assay [1] the target is T1, 380 human recombinant protein kinases (Homo sapiens, UniProt P06213).
T1 construct: purchased Eurofins (Celle Lévescault)
T1 sequence (P06213 28-1382): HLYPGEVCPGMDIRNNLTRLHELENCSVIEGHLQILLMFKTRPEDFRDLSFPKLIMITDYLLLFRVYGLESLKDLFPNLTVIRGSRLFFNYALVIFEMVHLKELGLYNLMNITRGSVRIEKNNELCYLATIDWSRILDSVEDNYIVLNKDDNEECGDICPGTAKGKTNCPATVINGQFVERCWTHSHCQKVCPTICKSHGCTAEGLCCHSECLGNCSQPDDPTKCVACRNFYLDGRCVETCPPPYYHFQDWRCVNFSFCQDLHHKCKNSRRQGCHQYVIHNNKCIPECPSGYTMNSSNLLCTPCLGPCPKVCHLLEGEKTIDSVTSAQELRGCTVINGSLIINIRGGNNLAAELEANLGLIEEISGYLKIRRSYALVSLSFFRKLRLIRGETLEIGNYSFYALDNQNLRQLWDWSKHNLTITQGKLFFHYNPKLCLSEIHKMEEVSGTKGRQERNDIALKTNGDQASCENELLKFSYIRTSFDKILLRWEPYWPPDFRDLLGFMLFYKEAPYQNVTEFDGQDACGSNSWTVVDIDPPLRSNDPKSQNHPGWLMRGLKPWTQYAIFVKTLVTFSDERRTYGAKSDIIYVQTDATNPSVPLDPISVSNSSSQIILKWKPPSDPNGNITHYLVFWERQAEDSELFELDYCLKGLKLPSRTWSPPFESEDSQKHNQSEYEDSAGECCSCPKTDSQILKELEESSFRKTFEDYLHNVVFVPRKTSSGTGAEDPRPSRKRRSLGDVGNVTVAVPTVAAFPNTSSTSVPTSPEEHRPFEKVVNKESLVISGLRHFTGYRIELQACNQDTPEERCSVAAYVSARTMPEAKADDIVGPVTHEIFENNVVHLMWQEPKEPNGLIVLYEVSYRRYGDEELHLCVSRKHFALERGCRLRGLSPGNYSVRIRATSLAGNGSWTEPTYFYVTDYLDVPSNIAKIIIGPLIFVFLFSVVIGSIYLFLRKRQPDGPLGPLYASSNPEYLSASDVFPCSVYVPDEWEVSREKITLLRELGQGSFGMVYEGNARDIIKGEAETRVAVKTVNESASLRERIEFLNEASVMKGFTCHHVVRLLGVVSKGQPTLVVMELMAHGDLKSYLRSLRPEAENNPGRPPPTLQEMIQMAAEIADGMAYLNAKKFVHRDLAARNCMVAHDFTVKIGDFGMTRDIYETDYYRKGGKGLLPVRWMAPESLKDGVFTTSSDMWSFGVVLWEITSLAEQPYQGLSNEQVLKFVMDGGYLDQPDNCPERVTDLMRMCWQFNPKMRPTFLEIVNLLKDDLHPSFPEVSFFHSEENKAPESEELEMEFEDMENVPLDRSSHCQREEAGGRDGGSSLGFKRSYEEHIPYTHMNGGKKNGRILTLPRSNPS
The settings on record: IR(h), read-out: Inhibition rate. A digest of the protocol:
(§1)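 The inhibitor was sent to a contract lab and screened at various concentrations against 380 human recombinant protein kinases. This served as a counter-screen for MK2 specificity.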

Assay [2] deals with T2, 380 human recombinant protein kinases (Homo sapiens, UniProt Q07912).
T2 construct: purchased Eurofins (Celle Lévescault)
T2 sequence (Q07912 whole entry): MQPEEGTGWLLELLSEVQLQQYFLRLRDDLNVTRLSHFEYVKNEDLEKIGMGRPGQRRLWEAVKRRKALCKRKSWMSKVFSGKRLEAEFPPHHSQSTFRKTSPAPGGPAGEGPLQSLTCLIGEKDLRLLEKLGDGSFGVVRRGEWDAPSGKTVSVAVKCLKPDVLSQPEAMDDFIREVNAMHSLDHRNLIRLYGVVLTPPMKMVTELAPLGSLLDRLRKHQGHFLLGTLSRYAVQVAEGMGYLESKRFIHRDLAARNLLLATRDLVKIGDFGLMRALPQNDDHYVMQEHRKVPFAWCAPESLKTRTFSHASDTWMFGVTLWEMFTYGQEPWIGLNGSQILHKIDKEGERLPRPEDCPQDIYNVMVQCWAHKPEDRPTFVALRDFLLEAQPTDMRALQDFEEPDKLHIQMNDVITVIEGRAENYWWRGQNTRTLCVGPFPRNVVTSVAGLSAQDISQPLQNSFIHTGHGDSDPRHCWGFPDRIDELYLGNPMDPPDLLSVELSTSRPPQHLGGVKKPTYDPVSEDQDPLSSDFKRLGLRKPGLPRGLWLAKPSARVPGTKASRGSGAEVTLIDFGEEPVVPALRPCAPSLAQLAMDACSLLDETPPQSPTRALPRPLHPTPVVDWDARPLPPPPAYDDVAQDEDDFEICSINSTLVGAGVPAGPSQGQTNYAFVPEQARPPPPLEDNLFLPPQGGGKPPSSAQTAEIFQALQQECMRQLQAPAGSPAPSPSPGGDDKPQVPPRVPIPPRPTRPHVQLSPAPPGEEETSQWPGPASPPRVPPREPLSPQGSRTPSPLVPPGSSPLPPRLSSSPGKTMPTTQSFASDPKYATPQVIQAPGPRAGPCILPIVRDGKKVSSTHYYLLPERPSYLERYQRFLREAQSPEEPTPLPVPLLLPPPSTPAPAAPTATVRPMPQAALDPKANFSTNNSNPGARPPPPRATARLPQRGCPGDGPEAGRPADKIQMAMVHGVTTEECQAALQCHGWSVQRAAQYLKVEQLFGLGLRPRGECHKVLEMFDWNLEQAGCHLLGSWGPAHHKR
The settings on record: ACK1(h), read-out: Inhibition rate. A digest of the protocol: as §1

Assay [3] concerns the target T3, 380 human recombinant protein kinases (Homo sapiens, UniProt Q15119).
T3 construct: purchased Eurofins (Celle Lévescault)
The settings on record: PDHK2(h), read-out: Inhibition rate. A digest of the protocol:
as §1

In assay [4] the target is T4, 380 human recombinant protein kinases (Homo sapiens, UniProt Q15139).
T4 construct: purchased Eurofins (Celle Lévescault)
T4 sequence (Q15139 1-912): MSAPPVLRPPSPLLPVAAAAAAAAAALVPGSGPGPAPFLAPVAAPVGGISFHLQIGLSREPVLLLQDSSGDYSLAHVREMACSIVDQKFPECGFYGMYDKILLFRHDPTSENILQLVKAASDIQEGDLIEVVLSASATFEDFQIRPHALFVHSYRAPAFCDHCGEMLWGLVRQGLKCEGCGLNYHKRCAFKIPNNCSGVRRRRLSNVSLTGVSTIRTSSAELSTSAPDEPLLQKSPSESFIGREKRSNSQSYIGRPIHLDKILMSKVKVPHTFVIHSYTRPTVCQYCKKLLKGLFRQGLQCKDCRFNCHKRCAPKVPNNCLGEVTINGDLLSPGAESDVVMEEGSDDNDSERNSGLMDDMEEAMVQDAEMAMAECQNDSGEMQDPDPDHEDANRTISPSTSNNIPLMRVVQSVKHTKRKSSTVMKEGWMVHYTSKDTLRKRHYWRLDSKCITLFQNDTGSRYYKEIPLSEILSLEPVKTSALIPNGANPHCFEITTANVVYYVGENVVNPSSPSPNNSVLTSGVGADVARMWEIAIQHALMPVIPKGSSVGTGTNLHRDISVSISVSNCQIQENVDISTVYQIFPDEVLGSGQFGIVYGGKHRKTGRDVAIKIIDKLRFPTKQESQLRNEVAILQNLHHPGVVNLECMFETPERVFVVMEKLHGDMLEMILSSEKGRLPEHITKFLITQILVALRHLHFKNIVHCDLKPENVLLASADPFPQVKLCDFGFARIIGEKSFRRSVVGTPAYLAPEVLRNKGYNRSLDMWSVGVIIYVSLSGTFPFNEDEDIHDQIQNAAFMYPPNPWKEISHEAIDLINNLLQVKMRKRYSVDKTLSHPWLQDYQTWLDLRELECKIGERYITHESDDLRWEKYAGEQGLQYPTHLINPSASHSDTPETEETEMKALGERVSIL
The settings on record: PKCμ(h), read-out: Inhibition rate. A digest of the protocol:
as §1

The target in assay [5] is T5, 380 human recombinant protein kinases (Homo sapiens, UniProt Q96PY6).
T5 construct: purchased Eurofins (Celle Lévescault)
T5 sequence (Q96PY6 1-1258): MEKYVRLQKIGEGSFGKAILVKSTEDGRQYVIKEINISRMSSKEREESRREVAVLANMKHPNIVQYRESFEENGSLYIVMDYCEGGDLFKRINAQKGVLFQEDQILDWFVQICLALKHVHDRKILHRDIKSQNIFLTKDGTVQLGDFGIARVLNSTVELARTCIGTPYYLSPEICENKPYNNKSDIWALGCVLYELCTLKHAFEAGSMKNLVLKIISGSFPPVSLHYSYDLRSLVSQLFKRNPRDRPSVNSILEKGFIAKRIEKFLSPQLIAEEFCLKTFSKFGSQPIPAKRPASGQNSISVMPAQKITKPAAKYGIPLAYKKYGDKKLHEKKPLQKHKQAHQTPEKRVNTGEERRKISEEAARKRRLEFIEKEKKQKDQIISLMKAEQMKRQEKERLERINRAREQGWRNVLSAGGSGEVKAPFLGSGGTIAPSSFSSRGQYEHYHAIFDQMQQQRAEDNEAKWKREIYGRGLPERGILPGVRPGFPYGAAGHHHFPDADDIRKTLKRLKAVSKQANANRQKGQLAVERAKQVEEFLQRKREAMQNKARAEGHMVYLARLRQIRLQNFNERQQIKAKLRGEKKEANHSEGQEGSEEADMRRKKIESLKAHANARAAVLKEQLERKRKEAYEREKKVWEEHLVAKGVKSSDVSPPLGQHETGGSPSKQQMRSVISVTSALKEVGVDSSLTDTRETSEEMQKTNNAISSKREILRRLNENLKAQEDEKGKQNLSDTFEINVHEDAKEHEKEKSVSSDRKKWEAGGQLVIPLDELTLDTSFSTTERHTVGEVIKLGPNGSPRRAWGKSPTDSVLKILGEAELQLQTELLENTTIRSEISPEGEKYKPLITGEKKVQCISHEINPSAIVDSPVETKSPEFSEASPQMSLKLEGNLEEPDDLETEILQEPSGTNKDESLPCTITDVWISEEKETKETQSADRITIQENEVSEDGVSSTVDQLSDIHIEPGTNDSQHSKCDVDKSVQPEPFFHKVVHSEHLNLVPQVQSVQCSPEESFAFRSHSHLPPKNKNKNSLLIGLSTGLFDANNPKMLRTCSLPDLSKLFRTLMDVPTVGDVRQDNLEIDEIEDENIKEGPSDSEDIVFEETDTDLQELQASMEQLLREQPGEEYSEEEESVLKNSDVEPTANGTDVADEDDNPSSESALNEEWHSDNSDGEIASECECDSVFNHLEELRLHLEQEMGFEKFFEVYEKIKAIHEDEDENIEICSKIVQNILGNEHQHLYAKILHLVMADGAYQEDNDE
The settings on record: NEK1(h), read-out: Inhibition rate. The method, boiled down:
as §1

The term inhibition denotes the change of the read-out against control, counted positive when it falls. For `C=CC(=O)Nc1cc(-c2cc(-c3cc4c([nH]3)CCNC4=O)ccn2)ccc1OC(F)(F)F` [compound 11], the inhibition at 0.01 µM in assay [1] (10 nM) is -9%; in assay [2] (10 nM) it was 1%; in assay [3] (10 nM) it was -8%; in assay [4] (10 nM) it was -6%; in assay [5] (10 nM) it was -3%. The inhibition at 0.1 µM is -4% in assay [1] (100 nM); 2% in assay [2] (100 nM); 6% in assay [3] (100 nM); 13% in assay [4] (100 nM); -1% in assay [5] (100 nM). The inhibition at 1 µM in assay [1] (1000 nM) is -10%; in assay [2] (1000 nM), 3%; in assay [3] (1000 nM) it was 0%; in assay [4] (1000 nM) it was 45%; in assay [5] (1000 nM) it was 11%.
